The results in this text go back to ChEMBL document CHEMBL1133215, “Natural and synthetic analogues of actinomycin D as Grb2-SH2 domain blockers” (Bioorg Med Chem Lett, 2000).

Numbered stars: 1 amine (or outer) side, 2 acyl side, 3 side chain; on linkers, the order of the positions; unused ones are H or OH. Bridge positions count the residues as written; N and C are the ends. Square brackets hold non-standard residues; d marks the D form. Peptide text beside a SMILES is read from it. I, II: the chains in the order shown. Actinocin(1to9) = Cc1c2oc3c(C)ccc(C(=O)[*:2])c3nc-2c(C(=O)[*:1])c(N)c1=O; NMeV = CN[C@H](C(=O)O)C(C)C; Sar = CNCC(=O)O

The target of experiment [1] is Growth factor receptor-bound protein 2 (Mus musculus) (UniProt Q60631). Briefly: In vitro inhibitory activity against Shc/Grb2 interactions in B104-1-1 cells at 2 uM. Format: functional, cell-based.
Sequence of Growth factor receptor-bound protein 2 (Mus musculus) (Q60631 whole entry): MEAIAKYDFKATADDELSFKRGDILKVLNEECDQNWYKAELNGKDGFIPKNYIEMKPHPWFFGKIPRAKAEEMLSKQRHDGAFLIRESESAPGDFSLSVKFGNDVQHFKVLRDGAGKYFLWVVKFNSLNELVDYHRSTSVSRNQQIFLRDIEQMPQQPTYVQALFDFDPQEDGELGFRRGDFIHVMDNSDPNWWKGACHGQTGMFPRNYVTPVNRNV
For experiment [2] the target is unchanged. Briefly: In vitro inhibitory activity against Shc/Grb2 interactions in B104-1-1 cells at 5 uM. It is filed as functional, cell-based.
The subject of experiment [3] is B104. Briefly: Growth inhibitory activity was tested against B104-1-1 cells. It is filed as functional, Mus musculus.
Experiment [4] deals with Growth factor receptor-bound protein 2 (Mus musculus, UniProt Q60631). Kind of experiment: In vitro binding assay of Shc-derived phosphopeptide to Growth factor receptor bound protein 2 SH2 in B104-1-1 cells was determined. It is filed as cell-based.
Sequence of Growth factor receptor-bound protein 2 (Q60631 whole entry): as above

One may read the inhibition as the percentage by which the read-out fell short of the control. Read a high inhibition as a strong effect. What is called GI50 is the concentration giving 50% growth inhibition. For orientation: IC50 means the concentration needed to halve the response being measured. As to `Cc1c2oc3c(C)ccc(C(=O)N[C@@H]4C(=O)N[C@H](C(C)C)C(=O)N5CCC[C@H]5C(=O)N(C)CC(=O)N(C)[C@@H](C(C)C)C(=O)O[C@@H]4C)c3nc-2c(C(=O)N[C@@H]2C(=O)N[C@H](C(C)C)C(=O)N3CCC[C@H]3C(=O)N(C)CC(=O)N(C)[C@@H](C(C)C)C(=O)O[C@@H]2C)c(N)c1=O` [DACTINOMYCIN] (I: T[dV]P[Sar][NMeV] / II: T[dV]P[Sar][NMeV]; ester I:1-I:C, II:1-II:C; linker I:N-II:N via Actinocin(1to9)), the inhibition in experiment [1] was found to be 40.1%; in experiment [2] it was 50.5%. Also, in experiment [3], halving of growth (GI50) required 0.7 nM. This compound returned an IC50 in experiment [4] of 5000 nM.
The like results for `CC[C@@H](C)[C@H]1NC(=O)[C@@H](NC(=O)c2c3nc4c(C(=O)N[C@@H]5C(=O)N[C@H]([C@H](C)CC)C(=O)N6CCC[C@H]6C(=O)N(C)CC(=O)N[C@@H](C(C)C)C(=O)O[C@@H]5C)ccc(C)c4oc-3c(C)c(=O)c2N)[C@@H](C)OC(=O)[C@H](C(C)C)NC(=O)CN(C)C(=O)[C@@H]2CCCN2C1=O` were, in that order, 30.9%, 40.8%, 0.8 nM and 5900 nM.
As for `Cc1c2oc3c(C)ccc(C(=O)N[C@@H]4C(=O)N[C@H](C(C)C)C(=O)N5CCC[C@H]5C(=O)N(C)CC(=O)N[C@@H](Cc5ccc(O)cc5)C(=O)O[C@@H]4C)c3nc-2c(C(=O)N[C@@H]2C(=O)N[C@H](C(C)C)C(=O)N3CCC[C@H]3C(=O)N(C)CC(=O)N[C@@H](Cc3ccc(O)cc3)C(=O)O[C@@H]2C)c(N)c1=O` (stereo in doubt; 10) [listing 1 of 2 here], the values for the inhibition in experiment [1] and in experiment [2] were 75.9% and 89.7%, respectively.
As to `COc1ccc(C[C@H]2NC(=O)CN(C)C(=O)[C@@H]3CCCN3C(=O)[C@@H](C(C)C)NC(=O)[C@@H](NC(=O)c3c4nc5c(C(=O)N[C@@H]6C(=O)N[C@H](C(C)C)C(=O)N7CCC[C@H]7C(=O)N(C)CC(=O)N[C@H](Cc7ccc(OC)cc7)C(=O)O[C@@H]6C)ccc(C)c5oc-4c(C)c(=O)c3N)[C@@H](C)OC2=O)cc1`, the inhibition in experiment [1] was found to be 46.9%; in experiment [2], 73%. In experiment [4], this compound came in with an IC50 of 2000 nM.
In the case of `Cc1c2oc3c(C)ccc(C(=O)N[C@@H]4C(=O)N[C@H](Cc5ccc(O)cc5)C(=O)N5CCC[C@H]5C(=O)N(C)CC(=O)N[C@@H](C(C)C)C(=O)O[C@@H]4C)c3nc-2c(C(=O)N[C@@H]2C(=O)N[C@H](Cc3ccc(O)cc3)C(=O)N3CCC[C@H]3C(=O)N(C)CC(=O)N[C@@H](C(C)C)C(=O)O[C@@H]2C)c(N)c1=O` (stereo in doubt; 1), the IC50 in experiment [4] came to 500 nM.
Consider `COc1ccc(C[C@H]2NC(=O)[C@@H](NC(=O)c3c4nc5c(C(=O)N[C@@H]6C(=O)N[C@H](Cc7ccc(OC)cc7)C(=O)N7CCC[C@H]7C(=O)N(C)CC(=O)N[C@@H](C(C)C)C(=O)O[C@@H]6C)ccc(C)c5oc-4c(C)c(=O)c3N)[C@@H](C)OC(=O)[C@H](C(C)C)NC(=O)CN(C)C(=O)[C@@H]3CCCN3C2=O)cc1`, for which the inhibition in experiment [1] was 69.7%; in experiment [2], 80.6%. In experiment [3], this compound had a concentration for 50% growth inhibition (GI50) of 10 nM. This compound also displayed a 50% inhibitory concentration (IC50) in experiment [4] of 1500 nM.
Regarding `Cc1c2oc3c(C)ccc(C(=O)N[C@@H]4C(=O)N[C@H](C(C)C)C(=O)N5CCC[C@H]5C(=O)N(C)CC(=O)N[C@@H](Cc5ccc(O)cc5)C(=O)O[C@@H]4C)c3nc-2c(C(=O)N[C@@H]2C(=O)N[C@H](C(C)C)C(=O)N3CCC[C@H]3C(=O)N(C)CC(=O)N[C@@H](Cc3ccc(O)cc3)C(=O)O[C@@H]2C)c(N)c1=O` (stereo in doubt; 8) [listing 1 of 2 here], the inhibition in experiment [1] turned out to be 15.9%; in experiment [2], 28.5%.
For the compound `Cc1c2oc3c(C)ccc(C(=O)N[C@@H]4C(=O)N[C@H](C(C)C)C(=O)N5CCC[C@H]5C(=O)N(C)CC(=O)N[C@H](C(C)C)C(=O)O[C@@H]4C)c3nc-2c(C(=O)N[C@@H]2C(=O)N[C@H](C(C)C)C(=O)N3CCC[C@H]3C(=O)N(C)CC(=O)N[C@H](C(C)C)C(=O)O[C@@H]2C)c(N)c1=O`, the inhibition in experiment [1] turned out to be 72%; in experiment [2], 86%. In experiment [3], this compound gave a GI50 of 3 nM. The compound also came in with a half-maximal inhibitory concentration (IC50) in experiment [4] of 1000 nM.
Regarding `Cc1c2oc3c(C)ccc(C(=O)N[C@@H]4C(=O)N[C@H](Cc5ccc(O)cc5)C(=O)N5CCC[C@H]5C(=O)N(C)CC(=O)N[C@@H](C(C)C)C(=O)O[C@@H]4C)c3nc-2c(C(=O)N[C@@H]2C(=O)N[C@H](Cc3ccc(O)cc3)C(=O)N3CCC[C@H]3C(=O)N(C)CC(=O)N[C@@H](C(C)C)C(=O)O[C@@H]2C)c(N)c1=O` (stereo in doubt; 7) [listing 1 of 2 here], the inhibition was determined as 42.9% in experiment [1] and 56.6% in experiment [2].
In the case of `Cc1c2oc3c(C)ccc(C(=O)N[C@@H]4C(=O)N[C@H](C(C)C)C(=O)N5CCC[C@H]5C(=O)N(C)CC(=O)N[C@H](Cc5ccc(O)cc5)C(=O)O[C@@H]4C)c3nc-2c(C(=O)N[C@@H]2C(=O)N[C@H](C(C)C)C(=O)N3CCC[C@H]3C(=O)N(C)CC(=O)N[C@H](Cc3ccc(O)cc3)C(=O)O[C@@H]2C)c(N)c1=O` (stereo in doubt; 5), in experiment [4], the IC50 is > 10000 nM.
On the same count and under the same terms, in the case of `Cc1c2oc3c(C)ccc(C(=O)N[C@@H]4C(=O)N[C@H](C(C)C)C(=O)N5CCC[C@H]5C(=O)N(C)CC(=O)N[C@H](Cc5ccc(O)cc5)C(=O)O[C@@H]4C)c3nc-2c(C(=O)N[C@@H]2C(=O)N[C@H](C(C)C)C(=O)N3CCC[C@H]3C(=O)N(C)CC(=O)N[C@H](Cc3ccc(O)cc3)C(=O)O[C@@H]2C)c(N)c1=O` (stereo in doubt; 12) [listing 1 of 2 here] it was 800 nM.
As for `CC[C@@H](C)[C@H]1NC(=O)CN(C)C(=O)[C@@H]2CCCN2C(=O)[C@@H]([C@H](C)CC)NC(=O)[C@@H](NC(=O)c2c3nc4c(C(=O)N[C@@H]5C(=O)N[C@H]([C@H](C)CC)C(=O)N6CCC[C@H]6C(=O)N(C)CC(=O)N[C@H]([C@H](C)CC)C(=O)O[C@@H]5C)ccc(C)c4oc-3c(C)c(=O)c2N)[C@@H](C)OC1=O`, the inhibition in experiment [1] turned out to be 15.1%; in experiment [2] it was 25.3%. Also, in experiment [3], growth was halved (GI50) at 1 nM. In experiment [4], this compound yielded an IC50 of 7600 nM.
On to `Cc1c2oc3c(C)ccc(C(=O)N[C@@H]4C(=O)N[C@H](C(C)C)C(=O)N5CCC[C@H]5C(=O)N(C)CC(=O)N[C@@H](Cc5ccccc5)C(=O)O[C@@H]4C)c3nc-2c(C(=O)N[C@@H]2C(=O)N[C@H](C(C)C)C(=O)N3CCC[C@H]3C(=O)N(C)CC(=O)N[C@@H](Cc3ccccc3)C(=O)O[C@@H]2C)c(N)c1=O`, for which the values for the inhibition in experiment [1] and in experiment [2] were 56.8% and 78.8%, respectively. Moreover, in experiment [4], the IC50 came to 1800 nM.
In experiment [4], `Cc1c2oc3c(C)ccc(C(=O)N[C@@H]4C(=O)N[C@H](C(C)C)C(=O)N5CCC[C@H]5C(=O)N(C)CC(=O)N[C@@H](Cc5ccc(O)cc5)C(=O)O[C@@H]4C)c3nc-2c(C(=O)N[C@@H]2C(=O)N[C@H](C(C)C)C(=O)N3CCC[C@H]3C(=O)N(C)CC(=O)N[C@@H](Cc3ccc(O)cc3)C(=O)O[C@@H]2C)c(N)c1=O` (stereo in doubt; 10) [listing 2 of 2 here] came in with an IC50 of 800 nM.
On the same count and under the same terms, in the case of `Cc1c2oc3c(C)ccc(C(=O)N[C@@H]4C(=O)N[C@H](Cc5ccc(O)cc5)C(=O)N5CCC[C@H]5C(=O)N(C)CC(=O)N[C@@H](C(C)C)C(=O)O[C@@H]4C)c3nc-2c(C(=O)N[C@@H]2C(=O)N[C@H](Cc3ccc(O)cc3)C(=O)N3CCC[C@H]3C(=O)N(C)CC(=O)N[C@@H](C(C)C)C(=O)O[C@@H]2C)c(N)c1=O` (stereo in doubt; 7) [listing 2 of 2 here] it was 4500 nM.
With `COc1ccc(C[C@@H]2NC(=O)CN(C)C(=O)[C@@H]3CCCN3C(=O)[C@@H](C(C)C)NC(=O)[C@@H](NC(=O)c3c4nc5c(C(=O)N[C@@H]6C(=O)N[C@H](C(C)C)C(=O)N7CCC[C@H]7C(=O)N(C)CC(=O)N[C@@H](Cc7ccc(OC)cc7)C(=O)O[C@@H]6C)ccc(C)c5oc-4c(C)c(=O)c3N)[C@@H](C)OC2=O)cc1`, the figures for the inhibition in experiment [1] and in experiment [2] were 55.1% and 73.8%, respectively. Besides, the IC50 in experiment [4] turned out to be 2000 nM.
As for `Cc1c2oc3c(C)ccc(C(=O)N[C@@H]4C(=O)N[C@H](C(C)C)C(=O)N5CCC[C@H]5C(=O)N(C)CC(=O)N[C@H](Cc5ccc(O)cc5)C(=O)O[C@@H]4C)c3nc-2c(C(=O)N[C@@H]2C(=O)N[C@H](C(C)C)C(=O)N3CCC[C@H]3C(=O)N(C)CC(=O)N[C@H](Cc3ccc(O)cc3)C(=O)O[C@@H]2C)c(N)c1=O` (stereo in doubt; 12) [listing 2 of 2 here], the values for the inhibition in experiment [1] and in experiment [2] were 79.9% and 90.2%, respectively.
For the compound `Cc1c2oc3c(C)ccc(C(=O)N[C@@H]4C(=O)N[C@H](C(C)C)C(=O)N5CCC[C@H]5C(=O)N(C)CC(=O)N[C@@H](Cc5ccc(O)cc5)C(=O)O[C@@H]4C)c3nc-2c(C(=O)N[C@@H]2C(=O)N[C@H](C(C)C)C(=O)N3CCC[C@H]3C(=O)N(C)CC(=O)N[C@@H](Cc3ccc(O)cc3)C(=O)O[C@@H]2C)c(N)c1=O` (stereo in doubt; 8) [listing 2 of 2 here], the IC50 in experiment [4] is > 10000 nM.
`Cc1c2oc3c(C)ccc(C(=O)N[C@@H]4C(=O)N[C@H](Cc5ccccc5)C(=O)N5CCC[C@H]5C(=O)N(C)CC(=O)N[C@@H](C(C)C)C(=O)O[C@@H]4C)c3nc-2c(C(=O)N[C@@H]2C(=O)N[C@H](Cc3ccccc3)C(=O)N3CCC[C@H]3C(=O)N(C)CC(=O)N[C@@H](C(C)C)C(=O)O[C@@H]2C)c(N)c1=O`: the inhibition in experiment [1] is 73.6%; in experiment [2], 82.8%. This compound showed a GI50 in experiment [3] of 8 nM. Besides, the IC50 in experiment [4] was determined as 1200 nM.
On to `Cc1c2oc3c(C)ccc(C(=O)N[C@@H]4C(=O)N[C@H](C(C)C)C(=O)N5CCC[C@H]5C(=O)N(C)CC(=O)N[C@H](Cc5ccccc5)C(=O)O[C@@H]4C)c3nc-2c(C(=O)N[C@@H]2C(=O)N[C@H](C(C)C)C(=O)N3CCC[C@H]3C(=O)N(C)CC(=O)N[C@H](Cc3ccccc3)C(=O)O[C@@H]2C)c(N)c1=O`, for which the inhibition came out at 75.1% in experiment [1] and 87.7% in experiment [2]. Also, the GI50 in experiment [3] was found to be 3 nM. This compound had a half-maximal inhibitory concentration (IC50) in experiment [4] of 900 nM.
